Measured values taken from PubChem BioAssay (NCI).
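How tested: cells in 96-well plates exposed to compound for 48 hours at five concentrations. TGI: concentration producing complete growth inhibition.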 Where a SMILES comes first, the peptide text is derived from it. The star is where a group is joined. Ethyl(2-NMe3+) = C[N+](C)(C)CC*; Boc = CC(C)(C)OC(=O)*

What was measured:
Assay in all cases: growth of human tumour cells (NCI), 48 h
786-0 renal = test system: 786-0 renal
A498 renal = test system: A498 renal
A549 NSCLC = test system: A549 NSCLC
ACHN renal = test system: ACHN renal
BT-549 breast = test system: BT-549 breast
CAKI-1 renal = test system: CAKI-1 renal
CCRF-CEM leukemia = test system: CCRF-CEM leukemia
COLO 205 colon = test system: COLO 205 colon
DU-145 prostate = test system: DU-145 prostate
EKVX NSCLC = test system: EKVX NSCLC
HCC-2998 colon = test system: HCC-2998 colon
HCT-116 colon = test system: HCT-116 colon
HCT-15 colon = test system: HCT-15 colon
HL-60(TB) leukemia = test system: HL-60(TB) leukemia
HOP-92 NSCLC = test system: HOP-92 NSCLC
HS 578T breast = test system: HS 578T breast
HT29 colon = test system: HT29 colon
IGROV1 ovarian = test system: IGROV1 ovarian
K-562 leukemia = test system: K-562 leukemia
KM12 colon = test system: KM12 colon
LOX IMVI melanoma = test system: LOX IMVI melanoma
M14 melanoma = test system: M14 melanoma
MALME-3M melanoma = test system: MALME-3M melanoma
MCF7 breast = test system: MCF7 breast
MDA-MB-231 breast = test system: MDA-MB-231 breast
MDA-MB-435 = test system: MDA-MB-435
MDA-N = test system: MDA-N
MOLT-4 leukemia = test system: MOLT-4 leukemia
NCI-H226 lung = test system: NCI-H226 lung
NCI-H23 lung = test system: NCI-H23 lung
NCI-H460 lung = test system: NCI-H460 lung
NCI-H522 lung = test system: NCI-H522 lung
NCI/ADR-RES ovarian = test system: NCI/ADR-RES ovarian
OVCAR-3 ovarian = test system: OVCAR-3 ovarian
OVCAR-4 ovarian = test system: OVCAR-4 ovarian
OVCAR-5 ovarian = test system: OVCAR-5 ovarian
OVCAR-8 ovarian = test system: OVCAR-8 ovarian
PC-3 prostate = test system: PC-3 prostate
RPMI-8226 leukemia = test system: RPMI-8226 leukemia
SF-268 CNS = test system: SF-268 CNS
SF-295 CNS = test system: SF-295 CNS
SF-539 CNS = test system: SF-539 CNS
SK-MEL-2 melanoma = test system: SK-MEL-2 melanoma
SK-MEL-28 melanoma = test system: SK-MEL-28 melanoma
SK-MEL-5 melanoma = test system: SK-MEL-5 melanoma
SK-OV-3 ovarian = test system: SK-OV-3 ovarian
SN12C renal = test system: SN12C renal
SNB-19 CNS = test system: SNB-19 CNS
SNB-75 CNS = test system: SNB-75 CNS
SW-620 colon = test system: SW-620 colon
T-47D breast = test system: T-47D breast
TK-10 renal = test system: TK-10 renal
U251 CNS = test system: U251 CNS
UACC-257 melanoma = test system: UACC-257 melanoma
UACC-62 melanoma = test system: UACC-62 melanoma
UO-31 renal = test system: UO-31 renal
HOP-62 NSCLC = test system: HOP-62 NSCLC
RXF 393 renal = test system: RXF 393 renal
SR leukemia = test system: SR leukemia

Measured: TGI

COc1ccc(NC(=O)/C(=N/NC(N)=S)C2C(=O)NC(=S)NC2=O)c(OC)c1
> 100 µM: 786-0 renal | A498 renal | A549 NSCLC | ACHN renal | BT-549 breast | CAKI-1 renal | CCRF-CEM leukemia | COLO 205 colon | DU-145 prostate | EKVX NSCLC | HCC-2998 colon | HCT-116 colon | HCT-15 colon | HL-60(TB) leukemia | HOP-92 NSCLC | HS 578T breast | HT29 colon | IGROV1 ovarian | K-562 leukemia | KM12 colon | LOX IMVI melanoma | M14 melanoma | MALME-3M melanoma | MCF7 breast | MDA-MB-231 breast | MDA-MB-435 | MDA-N | MOLT-4 leukemia | NCI-H226 lung | NCI-H23 lung | NCI-H460 lung | NCI-H522 lung | NCI/ADR-RES ovarian | OVCAR-3 ovarian | OVCAR-4 ovarian | OVCAR-5 ovarian | OVCAR-8 ovarian | PC-3 prostate | RPMI-8226 leukemia | SF-268 CNS | SF-295 CNS | SF-539 CNS | SK-MEL-2 melanoma | SK-MEL-28 melanoma | SK-MEL-5 melanoma | SK-OV-3 ovarian | SN12C renal | SNB-19 CNS | SNB-75 CNS | SW-620 colon | T-47D breast | TK-10 renal | U251 CNS | UACC-257 melanoma | UACC-62 melanoma | UO-31 renal

CC(NC(=O)C(Cc1ccc(OCC[N+](C)(C)C)cc1)NC(=O)OC(C)(C)C)C(=O)NC(Cc1ccccc1)C(=O)NCC(N)=O (centres undefined) (Boc-Y(Ethyl(2-NMe3+))AFG-NH2; configuration not given here)
44.6 µM: 786-0 renal
83 µM: HS 578T breast
69.7 µM: MALME-3M melanoma
25.5 µM: SF-539 CNS
24 µM: RXF 393 renal | TK-10 renal
25.2 µM: SK-MEL-2 melanoma
31.8 µM: NCI-H23 lung
17.4 µM: SF-295 CNS
59 µM: NCI-H226 lung
14.5 µM: HOP-62 NSCLC
45.8 µM: BT-549 breast
30.3 µM: SNB-75 CNS
60.3 µM: OVCAR-3 ovarian
59.5 µM: OVCAR-5 ovarian
12.8 µM: U251 CNS
48.8 µM: HCC-2998 colon
> 100 µM: A549 NSCLC | ACHN renal | CAKI-1 renal | COLO 205 colon | DU-145 prostate | HCT-116 colon | HCT-15 colon | HL-60(TB) leukemia | HT29 colon | K-562 leukemia | KM12 colon | LOX IMVI melanoma | M14 melanoma | MCF7 breast | MDA-MB-435 | MDA-N | MOLT-4 leukemia | NCI-H460 lung | NCI-H522 lung | NCI/ADR-RES ovarian | OVCAR-4 ovarian | PC-3 prostate | RPMI-8226 leukemia | SK-MEL-28 melanoma | SK-MEL-5 melanoma | SN12C renal | SW-620 colon | T-47D breast | UACC-257 melanoma | UO-31 renal
34.3 µM: SNB-19 CNS
25.7 µM: SF-268 CNS
33.3 µM: A498 renal
71.7 µM: UACC-62 melanoma
29.6 µM: HOP-92 NSCLC
58.4 µM: IGROV1 ovarian
55.3 µM: OVCAR-8 ovarian
22.7 µM: SK-OV-3 ovarian
9.1 µM: MDA-MB-231 breast

O=S(Nc1ccccc1)c1ccc(Cl)c(Cl)c1 (centres undefined)
92.9 µM: MDA-MB-435
53 µM: SF-539 CNS
34.2 µM: U251 CNS
33.1 µM: KM12 colon
42.4 µM: T-47D breast
> 100 µM: 786-0 renal | A549 NSCLC | ACHN renal | CCRF-CEM leukemia | COLO 205 colon | DU-145 prostate | EKVX NSCLC | HCC-2998 colon | HCT-116 colon | HCT-15 colon | HL-60(TB) leukemia | HT29 colon | IGROV1 ovarian | K-562 leukemia | LOX IMVI melanoma | M14 melanoma | MALME-3M melanoma | MCF7 breast | MDA-MB-231 breast | MDA-N | MOLT-4 leukemia | NCI-H226 lung | NCI-H23 lung | NCI-H460 lung | NCI-H522 lung | NCI/ADR-RES ovarian | OVCAR-3 ovarian | OVCAR-4 ovarian | OVCAR-8 ovarian | RPMI-8226 leukemia | SK-MEL-2 melanoma | SK-MEL-28 melanoma | SN12C renal | SNB-19 CNS | SR leukemia | SW-620 colon | TK-10 renal | UACC-257 melanoma | UO-31 renal
50.1 µM: SF-295 CNS
84.7 µM: HS 578T breast
82.9 µM: SF-268 CNS
64.6 µM: UACC-62 melanoma
54.4 µM: BT-549 breast
79.1 µM: HOP-62 NSCLC
62.5 µM: SK-MEL-5 melanoma

NC(=S)N/N=C1/CCCC2CCCC[C@@H]12 (some centres undefined)
> 100 µM: 786-0 renal | A498 renal | A549 NSCLC | ACHN renal | CAKI-1 renal | CCRF-CEM leukemia | COLO 205 colon | DU-145 prostate | EKVX NSCLC | HCC-2998 colon | HCT-15 colon | HL-60(TB) leukemia | HOP-62 NSCLC | HOP-92 NSCLC | HS 578T breast | HT29 colon | IGROV1 ovarian | K-562 leukemia | KM12 colon | LOX IMVI melanoma | M14 melanoma | MALME-3M melanoma | MCF7 breast | MDA-MB-231 breast | MDA-MB-435 | MDA-N | MOLT-4 leukemia | NCI-H226 lung | NCI-H23 lung | NCI-H460 lung | NCI-H522 lung | NCI/ADR-RES ovarian | OVCAR-3 ovarian | OVCAR-4 ovarian | OVCAR-5 ovarian | OVCAR-8 ovarian | PC-3 prostate | RPMI-8226 leukemia | RXF 393 renal | SF-268 CNS | SF-295 CNS | SF-539 CNS | SK-MEL-2 melanoma | SK-MEL-28 melanoma | SK-MEL-5 melanoma | SK-OV-3 ovarian | SNB-19 CNS | SNB-75 CNS | SR leukemia | SW-620 colon | T-47D breast | TK-10 renal | U251 CNS | UACC-257 melanoma | UACC-62 melanoma | UO-31 renal
